According to ChEMBL document CHEMBL1150322, “Aminopyrazine CB1 receptor inverse agonists” (Bioorg Med Chem Lett, 2008):
≈ marks a conversion by molar mass, not a printed value. One block for each compound: values may come before it. Calls of active or inactive are those of the source. The rule behind the calls is not given here.

Key:
[1] = target: CYP3A4 (Homo sapiens, UniProt P08684); test: in vitro; conditions: human liver microsomes, probe midazolam
[2] = physchem; conditions: aqueous, pH 7.4
Description: Aqueous solubility at pH 7.4

[3] = target: T1, Cannabinoid receptor 1 (Homo sapiens, UniProt P21554); type: functional, cell-based, Sf9
Description: Antagonist activity at human CB1 receptor expressed in SF9 cells assessed as inhibition of CP-55940-stimulated GTPgammaS binding

[4] = Drug level at Tmax in rat brain at 5 mg/kg, po qd after 19 days; type: ADME, organism-based; design: dose 5 mg/kg, route oral; conditions: read-out: Drug uptake
[5] = species on record: Rattus norvegicus; test: animal or person; conditions: po, 24 h, read-out: INH
Description: Inhibition of food intake in overnight fed diet-induced obesity rat model at 5 mg/kg, po after 24 hrs relative to control

[6] = tested on: Rattus norvegicus; test: Reduction in cumulative food intake in subchronic diet-induced rat at 5 mg/kg, po qd after 18 days relative to control; type: functional; design: scale not given: the % may be the effect or the level left
[7] = species on record: Rattus norvegicus; test: Decrease in blood glucose level in rat after 18 days; type: functional, organism-based
[8] = Drug level in rat brain at 5 mg/kg, po qd after 19 days measured 17 hrs after last dose; type: ADME, organism-based; design: dose 5 mg/kg, route oral; conditions: read-out: Drug uptake
[9] = target: Rattus norvegicus; test: Ex vivo receptor occupancy by displacement of [3H]CP-55940 from rat CB1 receptor in po dosed rat cerebellum membrane after 3 hrs; type: functional, organism-based
[10] = species on record: Rattus norvegicus; test: Decrease in blood insulin level in rat after 18 days; type: functional, organism-based
[11] = tested on: Homo sapiens; test: Ex vivo receptor occupancy by displacement of [3H]CP-55940 from human CB1 receptor in […] after 3 hrs; type: functional; conditions: read-out: ID50 (the source's name)
[12] = Drug level in rat plasma 5 mg/kg, po qd after 19 days measured 17 hrs after last dose; type: ADME, organism-based; design: dose 5 mg/kg, route oral; conditions: read-out: Drug uptake
[13] = tested on: Rattus norvegicus; test: Reduction in body weight in subchronic diet-induced rat at 5 mg/kg, po qd after 18 days relative to control; type: functional; design: scale not given: the % may be the effect or the level left
[14] = Drug level at Tmax in rat plasma at 5 mg/kg, po qd after 19 days; type: ADME, organism-based; design: dose 5 mg/kg, route oral; conditions: read-out: Drug uptake
[15] = target: T1, Cannabinoid receptor 1; type: functional, cell-based, Sf9; remark: listed apart in the source
Description: Inverse agonist at human CB1 receptor expressed in SF9 cells assessed as decrease in GTPgammaS level

[16] = target: Cannabinoid receptor 1 (Rattus norvegicus, UniProt P20272)
Description: Antagonist activity at rat CB1 receptor in SF9 cells assessed as inhibition of CP-55940-stimulated GTPgammaS binding

[17] = tested on: Rattus norvegicus; test: Inhibition of food intake in overnight fed diet-induced obesity rat model at 10 mg/kg, po after 24 hrs relative to control; type: functional
[18] = target: Cannabinoid receptor 2 (Homo sapiens, UniProt P34972)
Description: Antagonist activity at human CB2 receptor in SF9 cells assessed as inhibition of CP-55940-stimulated GTPgammaS binding

[19] = species on record: Homo sapiens; test: Selectivity for human CB1 receptor over human CB2 receptor
[20] = Drug level in rat brain at 1 mg/kg, po qd after 19 days measured 17 hrs after last dose; type: ADME, organism-based; design: dose 1 mg/kg, route oral; conditions: read-out: Drug uptake
[21] = Drug level at Tmax in rat brain at 1 mg/kg, po qd after 19 days; type: ADME, organism-based; design: dose 1 mg/kg, route oral; conditions: read-out: Drug uptake
[22] = Drug level at Tmax in rat plasma at 1 mg/kg, po qd after 19 days; type: ADME, organism-based; design: dose 1 mg/kg, route oral; conditions: read-out: Drug uptake
[23] = tested on: Rattus norvegicus; test: Reduction in body weight in subchronic diet-induced rat at 1 mg/kg, po qd after 18 days relative to control; type: functional; design: scale not given: the % may be the effect or the level left
[24] = tested on: Rattus norvegicus; test: Reduction in cumulative food intake in subchronic diet-induced rat at 1 mg/kg, po qd after 18 days relative to control; type: functional; design: scale not given: the % may be the effect or the level left
[25] = Drug level in rat plasma 1 mg/kg, po qd after 19 days measured 17 hrs after last dose; type: ADME, organism-based; design: dose 1 mg/kg, route oral; conditions: read-out: Drug uptake
[26] = species on record: Rattus norvegicus; test: Decrease in blood leptin level in rat after 18 days; type: functional, organism-based

Chain of Cannabinoid receptor 2 (P34972 whole entry): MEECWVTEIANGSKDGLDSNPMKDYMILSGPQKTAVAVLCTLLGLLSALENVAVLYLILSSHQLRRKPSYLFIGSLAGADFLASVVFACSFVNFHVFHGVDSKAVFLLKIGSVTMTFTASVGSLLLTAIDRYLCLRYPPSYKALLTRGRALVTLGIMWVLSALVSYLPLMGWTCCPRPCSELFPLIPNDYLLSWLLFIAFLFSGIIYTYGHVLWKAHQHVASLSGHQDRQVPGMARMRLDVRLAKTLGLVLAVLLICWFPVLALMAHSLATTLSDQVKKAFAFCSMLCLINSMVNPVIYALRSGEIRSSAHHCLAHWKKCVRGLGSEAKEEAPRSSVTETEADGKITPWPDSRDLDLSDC
Chain of CYP3A4 (P08684 whole entry): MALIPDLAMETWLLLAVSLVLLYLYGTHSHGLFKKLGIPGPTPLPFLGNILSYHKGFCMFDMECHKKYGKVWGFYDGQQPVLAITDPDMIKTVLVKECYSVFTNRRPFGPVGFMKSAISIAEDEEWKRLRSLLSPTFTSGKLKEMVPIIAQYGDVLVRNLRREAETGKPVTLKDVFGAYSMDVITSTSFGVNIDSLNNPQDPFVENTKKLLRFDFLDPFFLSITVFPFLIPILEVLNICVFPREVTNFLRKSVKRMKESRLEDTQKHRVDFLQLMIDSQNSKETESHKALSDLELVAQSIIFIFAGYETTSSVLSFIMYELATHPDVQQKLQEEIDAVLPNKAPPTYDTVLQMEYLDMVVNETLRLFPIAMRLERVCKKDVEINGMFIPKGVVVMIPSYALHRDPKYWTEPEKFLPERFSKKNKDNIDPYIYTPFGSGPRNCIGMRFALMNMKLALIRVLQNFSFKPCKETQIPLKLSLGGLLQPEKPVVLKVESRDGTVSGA
T1 sequence (P21554 whole entry): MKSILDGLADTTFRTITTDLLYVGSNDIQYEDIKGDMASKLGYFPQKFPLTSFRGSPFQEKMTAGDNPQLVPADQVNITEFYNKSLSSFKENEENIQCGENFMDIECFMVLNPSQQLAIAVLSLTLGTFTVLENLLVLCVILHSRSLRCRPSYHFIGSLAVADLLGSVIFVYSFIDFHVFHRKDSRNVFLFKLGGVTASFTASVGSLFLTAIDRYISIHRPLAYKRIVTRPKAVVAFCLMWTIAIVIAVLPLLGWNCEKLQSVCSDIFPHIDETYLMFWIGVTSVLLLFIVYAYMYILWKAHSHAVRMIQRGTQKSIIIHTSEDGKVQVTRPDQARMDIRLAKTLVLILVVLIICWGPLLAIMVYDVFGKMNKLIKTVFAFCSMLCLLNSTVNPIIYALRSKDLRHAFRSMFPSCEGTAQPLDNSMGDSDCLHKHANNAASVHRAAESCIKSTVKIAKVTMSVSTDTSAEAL
Chain of Cannabinoid receptor 1 (Rattus norvegicus, UniProt P20272) (P20272 whole entry): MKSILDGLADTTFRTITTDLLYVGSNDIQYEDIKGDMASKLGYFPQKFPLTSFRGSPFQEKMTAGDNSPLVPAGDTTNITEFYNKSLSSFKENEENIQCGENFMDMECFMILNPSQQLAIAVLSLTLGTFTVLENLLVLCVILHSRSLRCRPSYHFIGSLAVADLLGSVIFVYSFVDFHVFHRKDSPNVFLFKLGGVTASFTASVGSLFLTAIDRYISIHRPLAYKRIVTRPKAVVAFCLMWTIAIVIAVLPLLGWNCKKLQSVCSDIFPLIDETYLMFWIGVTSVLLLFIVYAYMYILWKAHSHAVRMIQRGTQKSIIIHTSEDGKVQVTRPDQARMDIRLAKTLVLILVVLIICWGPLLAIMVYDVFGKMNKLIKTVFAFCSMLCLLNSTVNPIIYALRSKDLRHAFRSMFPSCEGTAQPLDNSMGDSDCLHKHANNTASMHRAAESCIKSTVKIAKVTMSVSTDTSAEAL

SMILES: CCNC1(C(N)=O)CCN(c2cnc(-c3ccc(OCC)cc3)c(-c3ccc(OCC)cc3)n2)CC1
inhibition at 5 µM [1]: < 5%
Ki [3]: 2.84 nM

SMILES: O=S1(=O)CCN(c2cnc(-c3ccc(C(F)(F)F)cc3)c(-c3ccncc3Cl)n2)CC1
inhibition at 5 µM [1]: < 5%
IC50 [15]: 4.2 nM
Ki [16]: 0.83 nM
inhibition in vivo at 10 mg/kg [17]: 71%
solubility [2]: 23 µg/mL (≈ 49.1 µM)
Ki [3]: 0.83 nM
Ki [18]: 1900 nM
Ratio Ki [19]: > 2000

SMILES: CCNC1(C(N)=O)CCN(c2cnc(-c3ccc(Cl)cc3)c(-c3ccc(C#N)cc3)n2)CC1
solubility [2]: 36 µg/mL (≈ 78.1 µM)
Ki [3]: 32.3 nM

SMILES: CCC(=O)NC1CCN(c2cnc(-c3ccc(C(F)(F)F)cc3)c(-c3ccncc3Cl)n2)CC1
inhibition at 5 µM [1]: 11%
solubility [2]: 24 µg/mL (≈ 49 µM)
Ki [3]: 0.8 nM

SMILES: CC(C)C(=O)NC1CCN(c2cnc(-c3ccc(C(F)(F)F)cc3)c(-c3ccncc3Cl)n2)CC1
inhibition at 5 µM [1]: < 5%
concentration at 17 h [20]: 110 ng/mL
concentration at 456 h [4]: 630 ng/mL
IC50 [15]: 0.54 nM
inhibition in vivo at 5 mg/kg [5]: 80%
Ki [16]: 0.41 nM
concentration at 456 h [21]: 235 ng/mL
solubility [2]: 4.5 µg/mL (≈ 8.93 µM)
Activity [6]: 27.6%
Cmax [22]: 121 ng/mL
Ki [3]: 0.24 nM
Activity [23]: 4.8%
Activity [7]: Active
Activity [24]: 18.8%
concentration at 17 h [8]: 253 ng/mL
Ki [9]: 4.4 nM
Activity [10]: Active
ED50 [11]: 0.3 mg/kg
concentration at 17 h [12]: 142 ng/mL
Activity [13]: 8.5%
concentration at 17 h [25]: 44.2 ng/mL
Cmax [14]: 346 ng/mL
Ki [18]: 4940 nM
Activity [26]: Dose-dependent effect
Ratio Ki [19]: > 2000

SMILES: CCNC1(C(N)=O)CCN(c2cnc(-c3ccc(Cl)cc3)c(-c3ccc(Cl)cc3Cl)n2)CC1
inhibition at 5 µM [1]: < 5%
Ki [3]: 0.91 nM

SMILES: CCNC1(C(N)=O)CCN(c2cnc(-c3ccc(C(F)(F)F)cc3)c(-c3ccnc(Cl)c3)n2)CC1
inhibition at 5 µM [1]: < 5%
solubility [2]: 25.5 µg/mL (≈ 50.5 µM)
Ki [3]: 0.87 nM

SMILES: CCNC1(C(N)=O)CCN(c2cnc(-c3ccc(OCC)cc3)c(-c3ccccc3Cl)n2)CC1
inhibition at 5 µM [1]: 10%
solubility [2]: 1.2 µg/mL (≈ 2.5 µM)
Ki [3]: 15 nM

Further lines, with some results ahead:

inhibition at 5 µM [1]: 54%
solubility [2]: 21.8 µg/mL (≈ 46.3 µM)
Ki [3]: 0.67 nM
SMILES: CCNC1(C(N)=O)CCN(c2cnc(-c3ccc(Cl)cc3)c(-c3ccnc(Cl)c3)n2)CC1

inhibition at 5 µM [1]: 9.7%
solubility [2]: 1.25 µg/mL (≈ 2.66 µM)
Ki [3]: 1.66 nM
SMILES: CCNC1(C(N)=O)CCN(c2cnc(-c3ccc(Cl)cc3)c(-c3ccccc3Cl)n2)CC1

inhibition at 5 µM [1]: 20.5%
Ki [3]: 1.75 nM
SMILES: CCNC1(C(N)=O)CCN(c2cnc(-c3ccc(F)cc3)c(-c3ccc(Cl)cc3Cl)n2)CC1

inhibition at 5 µM [1]: < 5%
concentration at 456 h [4]: 318 ng/mL
solubility [2]: 0.3 µg/mL (≈ 0.647 µM)
concentration at 17 h [8]: 65 ng/mL
Ki [9]: 1.1 nM
concentration at 17 h [12]: 3 ng/mL
Cmax [14]: 346 ng/mL
SMILES: Cc1c(C(=O)NN2CCCCC2)nn(-c2ccc(Cl)cc2Cl)c1-c1ccc(Cl)cc1 [RIMONABANT]
inhibition in vivo at 5 mg/kg [5]: 73%
Activity [6]: 13.8%
Activity [7]: Active
Activity [10]: Active
ED50 [11]: 0.5 mg/kg
Activity [13]: 4.1%

inhibition at 5 µM [1]: 71%
solubility [2]: 74.9 µg/mL (≈ 171 µM)
Ki [3]: 9.81 nM
SMILES: CCNC1(C(N)=O)CCN(c2cnc(-c3ccc(Cl)cc3)c(-c3ccncc3)n2)CC1

inhibition at 5 µM [1]: < 5%
IC50 [15]: 3.07 nM
Ki [16]: 2.06 nM
solubility [2]: 38 µg/mL (≈ 79.7 µM)
Ki [3]: 1.2 nM
Ki [18]: > 50000 nM
Ratio Ki [19]: > 2000
SMILES: CCNC1(C(N)=O)CN(c2cnc(-c3ccc(C(F)(F)F)cc3)c(-c3ccnc(Cl)c3)n2)C1
inhibition in vivo at 10 mg/kg [17]: 58%
